From patent US20240383954A1, “PEPTIDE INHIBITORS OF INTERLEUKIN-23 RECEPTOR AND THEIR USE TO TREAT INFLAMMATORY DISEASES” (Janssen Biotech, Inc., priority 2020, published 2024)
Like-named read-outs stand apart in the source and are kept apart here. Starred links: 1 amine or outer side, 2 acyl side, 3 side chain; linkers in the order of their positions; H or OH if unused. Positions of bridges follow the written chain, without caps; N, C: chain ends. Non-standard residues stand in square brackets, D forms with d. Residues, ends and D or L forms follow the SMILES beside them. Trp(7-Ph) = N[C@@H](Cc1c[nH]c2c(-c3ccccc3)cccc12)C(=O)O; Trp(7-Me) = Cc1cccc2c(C[C@H](N)C(=O)O)c[nH]c12; Abu(4-yl) = O=C([C@H](CC[*:3])N[*:1])[*:2]; 2Nal = N[C@@H](Cc1ccc2ccccc2c1)C(=O)O; AEF = NCCOc1ccc(C[C@H](N)C(=O)O)cc1; αMeF = C[C@](N)(Cc1ccccc1)C(=O)O; Pen = CC(C)(S)[C@H](N)C(=O)O; αMeK = C[C@](N)(CCCCN)C(=O)O; dDap = NC[C@@H](N)C(=O)O

Experiments:
Assay in all cases: cell-based
IL-23R [1] = target: T1, IL-23R (Homo sapiens, UniProt Q5VWK5)
Description: DB Cells IL23R pSTAT3 Cell Assay
Changes in phospho-STAT3 levels in the cell lysates were detected using the Cisbio HTRF pSTAT3 Cellular Assay Kit, according to manufacturer's Two Plate Assay protocol.

IL-23R [2] = target: T1, IL-23R; conditions: PBMC pSTAT3 IC50 (nM), PBMCs from healthy donors, IL-23 5 ng/mL, 30 minutes, phosphorylated STAT3
IL-23R [3] = target: T1, IL-23R; remark: listed apart in the source
Protocol: After 7 days, cells were centrifuged, and resuspended in complete media at IE6 cells/mL. […] After 20 to 24 hours, IFNγ in the supernatant was quantified using Quantikine ELISA (RnD, Cat #DIF50).

T1 sequence (Q5VWK5 24-629): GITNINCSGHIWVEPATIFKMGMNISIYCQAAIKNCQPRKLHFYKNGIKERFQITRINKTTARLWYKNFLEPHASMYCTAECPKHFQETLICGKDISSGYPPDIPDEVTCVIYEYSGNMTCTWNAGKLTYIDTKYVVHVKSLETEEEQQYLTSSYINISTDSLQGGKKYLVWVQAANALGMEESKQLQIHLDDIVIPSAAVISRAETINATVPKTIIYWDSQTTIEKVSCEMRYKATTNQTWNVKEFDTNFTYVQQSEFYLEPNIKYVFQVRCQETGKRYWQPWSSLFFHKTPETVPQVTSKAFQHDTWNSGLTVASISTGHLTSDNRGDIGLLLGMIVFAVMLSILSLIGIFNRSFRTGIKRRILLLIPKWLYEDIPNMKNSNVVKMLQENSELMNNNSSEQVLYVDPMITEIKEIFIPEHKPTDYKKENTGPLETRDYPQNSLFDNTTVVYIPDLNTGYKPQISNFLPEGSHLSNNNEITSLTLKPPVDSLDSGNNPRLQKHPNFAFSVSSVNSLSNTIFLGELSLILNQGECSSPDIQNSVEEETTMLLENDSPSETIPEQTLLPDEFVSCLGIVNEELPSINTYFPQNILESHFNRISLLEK

Compound | IC50 (IL-23R [1]) [µM] | IC50 (IL-23R [2]) [nM] | IC50 (IL-23R [3]) [µM]
CC(=O)NCCCC[C@@H]1NC(=O)[C@H](Cc2c[nH]c3c(C)cccc23)NC(=O)[C@H]([C@@H](C)O)NC(=O)[C@H](CCC(N)=O)NC(=O)[C@@H](NC(=O)[C@@H](CCCNC(=N)N)NC(C)=O)CCSC[C@@H](C(=O)N[C@@H](Cc2ccc(OCCN)cc2)C(=O)N[C@@H](Cc2ccc3ccccc3c2)C(=O)N[C@@](C)(CCCCN)C(=O)N[C@@H](CCCCNC(C)=O)C(=O)N[C@@H](CC(N)=O)C(=O)N[C@@](C)(Cc2ccccc2)C(N)=O)NC1=O [Compound 201, Ac-[(D)Arg]-[Abu]-Q-T-[W(7-Me)]-[Lys(Ac)]-[Cys]-Phe[4-(2-aminoethoxy)]-[2-Nal]-[a-MeLys]-[Lys(Ac)]-N-[a-MePhe]-NH2] (Ac-[dR][Abu(4-yl)]QT[Trp(7-Me)]K(Ac)C[AEF][2Nal][αMeK]K(Ac)N[αMeF]-NH2; thioether 2-7) | 0.0127 |  | 
CC(=O)NCCCC[C@@H]1NC(=O)[C@H](Cc2c[nH]c3c(C)cccc23)NC(=O)[C@@H](CCCCN)NC(=O)[C@H](CC(N)=O)NC(=O)[C@@H](NC(C)=O)C(C)(C)SSC(C)(C)[C@@H](C(=O)N[C@@H](Cc2ccc(OCCN)cc2)C(=O)N[C@@H](Cc2ccc3ccccc3c2)C(=O)N[C@@](C)(CCCCN)C(=O)N[C@@H](CCCCNC(C)=O)C(=O)N[C@@H](CC(N)=O)C(=O)N[C@H](CC(C)C)C(N)=O)NC1=O [Compound 73, Ac-[Pen]-N-[(D)Lys]-[W(7-Me)]-[Lys(Ac)]-[Pen]-Phe[4-(2-aminoethoxy)]-[2-Nal]-[a-MeLys]-[Lys(Ac)]-N-[(D)Leu]-NH2] (Ac-[Pen]N[dK][Trp(7-Me)]K(Ac)[Pen][AEF][2Nal][αMeK]K(Ac)N[dL]-NH2; disulfide 1-6) | 0.0511 |  | 
CCC(=O)N[C@H](CCCNC(=N)N)C(=O)N[C@@H]1C(=O)N[C@@H](CCC(N)=O)C(=O)N[C@@H]([C@@H](C)O)C(=O)N[C@@H](Cc2c[nH]c3ccccc23)C(=O)N[C@@H](CCC(N)=O)C(=O)N[C@H](C(=O)N[C@@H](Cc2ccc(OCCN)cc2)C(=O)N[C@@H](Cc2ccc3ccccc3c2)C(=O)NC2(C(=O)N[C@@H](CCCCNC(=O)C(F)(F)F)C(=O)N[C@@H](CC(N)=O)C(=O)NC3(C(N)=O)CCOCC3)CCOCC2)C(C)(C)SSC1(C)C [Compound 6, [Propionic_acid]-[(D)Arg]-[Pen]-Q-T-W-Q-[Pen]-Phe[4-(2-aminoethoxy)]-[2-Nal]-[THP]-[Lys(COCF3)]-N-[THP]-NH2] |  | 8.6 | 0.0168
CC(=O)NCCCC[C@@H]1NC(=O)[C@H](Cc2c[nH]c3c(C)cccc23)NC(=O)[C@@H](CN)NC(=O)[C@H](CC(N)=O)NC(=O)[C@@H](NC(C)=O)C(C)(C)SSC(C)(C)[C@@H](C(=O)N[C@@H](Cc2ccc(OCCN)cc2)C(=O)N[C@@H](Cc2ccc3ccccc3c2)C(=O)N[C@@](C)(CCCCN)C(=O)N[C@@H](CCCCNC(C)=O)C(=O)N[C@@H](CC(N)=O)C(=O)N[C@H](CC(C)C)C(N)=O)NC1=O [Compound 72, Ac-[Pen]-N-[(D)Dap]-[W(7-Me)]-[Lys(Ac)]-[Pen]-Phe[4-(2-aminoethoxy)]-[2-Nal]-[a-MeLys]-[Lys(Ac)]-N-[(D)Leu]-NH2] (Ac-[Pen]N[dDap][Trp(7-Me)]K(Ac)[Pen][AEF][2Nal][αMeK]K(Ac)N[dL]-NH2; disulfide 1-6) | 0.0526 |  | 
CC(=O)NCCCC[C@@H]1NC(=O)[C@H](Cc2c[nH]c3c(C)cccc23)NC(=O)[C@H]([C@@H](C)O)NC(=O)[C@H](CC(N)=O)NC(=O)[C@@H](NC(C)=O)C(C)(C)SSC(C)(C)[C@@H](C(=O)N[C@@H](Cc2ccc(OCCN)cc2)C(=O)N[C@@H](Cc2ccc3ccccc3c2)C(=O)N[C@@](C)(CCCCN)C(=O)N[C@@H](CCCCNC(C)=O)C(=O)N[C@@H](CC(N)=O)C(=O)NC(C)(C)C(=O)NCCCCCC(N)=O)NC1=O [Compound 70, Ac-[Pen]-N-T-[W(7-Me)]-[Lys(Ac)]-[Pen]-Phe[4-(2-aminoethoxy)]-[2-Nal]-[a-MeLys]-[Lys(Ac)]-N-[Aib-Ahx]-NH2] | 0.00122 |  | 
CC(=O)NCCCC[C@@H]1NC(=O)[C@H](Cc2c[nH]c3c(C)cccc23)NC(=O)[C@H]([C@@H](C)O)NC(=O)[C@H](CC(N)=O)NC(=O)[C@@H](NC(C)=O)C(C)(C)SSC(C)(C)[C@@H](C(=O)N[C@@H](Cc2ccc(OCCN)cc2)C(=O)N[C@@H](Cc2ccc3ccccc3c2)C(=O)N[C@@](C)(CCCCN)C(=O)N[C@@H](CCCCNC(C)=O)C(=O)N[C@@H](CC(N)=O)C(=O)N[C@H](CC(C)C)C(=O)N[C@@](C)(Cc2ccccc2)C(N)=O)NC1=O [Compound 68, Ac-[Pen]-N-T-[W(7-Me)]-[Lys(Ac)]-[Pen]-Phe[4-(2-aminoethoxy)]-[2-Nal]-[a-MeLys]-[Lys(Ac)]-N-[(D)Leu]-[aMePhe]-am] | 0.007 |  | 
CC(=O)NCCCC[C@@H]1NC(=O)[C@H](Cc2c[nH]c3c(C)cccc23)NC(=O)[C@H]([C@@H](C)O)NC(=O)[C@H](CC(N)=O)NC(=O)[C@@H](NC(C)=O)C(C)(C)SSC(C)(C)[C@@H](C(=O)N[C@@H](Cc2ccc(OCCN)cc2)C(=O)N[C@@H](Cc2ccc3ccccc3c2)C(=O)N[C@@](C)(CCCCN)C(=O)N[C@@H](CCCCNC(C)=O)C(=O)N[C@@H](CC(N)=O)C(=O)N[C@@H](Cc2ccc(N)cc2)C(N)=O)NC1=O [Compound 112, Ac-[Pen]-N-T-[W(7-Me)]-[Lys(Ac)]-[Pen]-Phe[4-(2-aminoethoxy)]-[2-Nal]-[a-MeLys]-[Lys(Ac)]-N-Phe[4-NH2]-NH2] | 0.00209 |  | 
CC(=O)NCCCC[C@@H]1NC(=O)[C@H](Cc2c[nH]c3c(C)cccc23)NC(=O)[C@H]([C@@H](C)O)NC(=O)[C@H](CC(N)=O)NC(=O)[C@@H](NC(C)=O)C(C)(C)SSC(C)(C)[C@@H](C(=O)N[C@@H](Cc2ccc(OCCN)cc2)C(=O)N[C@@H](Cc2ccc3ccccc3c2)C(=O)N[C@@](C)(CCCCN)C(=O)N[C@@H](CCCCNC(C)=O)C(=O)N[C@@H](CC(N)=O)C(=O)N[C@H](CC(C)C)C(=O)N[C@](C)(Cc2ccccc2)C(N)=O)NC1=O [Compound 69, Ac-[Pen]-N-T-[W(7-Me)]-[Lys(Ac)]-[Pen]-Phe[4-(2-aminoethoxy)]-[2-Nal]-[a-MeLys]-[Lys(Ac)]-N-[(D)Leu]-[(D)aMePhe]-NH2] | 0.00275 |  | 
CC(=O)NCCCC[C@@H]1NC(=O)[C@H](Cc2c[nH]c3c(C)cccc23)NC(=O)[C@H]([C@@H](C)O)NC(=O)[C@H](CC(N)=O)NC(=O)[C@@H](NC(C)=O)C(C)(C)SSC(C)(C)[C@@H](C(=O)N[C@@H](Cc2ccc(OCCN)cc2)C(=O)N[C@@H](Cc2ccc3ccccc3c2)C(=O)N[C@@](C)(CCCCN)C(=O)N[C@@H](CCCCNC(C)=O)C(=O)N[C@@H](CC(N)=O)C(=O)NC(C)(C)C(=O)N[C@H](CC(N)=O)Cc2ccccc2)NC1=O [Compound 71, Ac-[Pen]-N-T-[W(7-Me)]-[Lys(Ac)]-[Pen]-Phe[4-(2-aminoethoxy)]-[2-Nal]-[a-MeLys]-[Lys(Ac)]-N-[Aib]-[bhPhe]-NH2] | 0.00339 |  | 
CC(=O)NCCCC[C@@H]1NC(=O)[C@H](Cc2c[nH]c3c(-c4ccccc4)cccc23)NC(=O)[C@H]([C@@H](C)O)NC(=O)[C@H](CCC(N)=O)NC(=O)[C@@H](NC(=O)[C@@H](CCCNC(=N)N)NC(C)=O)CCSC[C@@H](C(=O)N[C@@H](Cc2ccc(OCCN)cc2)C(=O)N[C@@H](Cc2ccc3ccccc3c2)C(=O)N[C@@](C)(CCCCN)C(=O)N[C@@H](CCCCNC(C)=O)C(=O)N[C@@H](CC(N)=O)C(=O)N[C@@](C)(Cc2ccccc2)C(N)=O)NC1=O [Compound 11, Ac-[(D)Arg]-[Abu]-Q-T-[W(7-Ph)]-[Lys(Ac)]-[Cys]-Phe[4-(2-aminoethoxy)]-[2-Nal]-[a-MeLys]-[Lys(Ac)]-N-[a-MePhe]-NH2] (Ac-[dR][Abu(4-yl)]QT[Trp(7-Ph)]K(Ac)C[AEF][2Nal][αMeK]K(Ac)N[αMeF]-NH2; thioether 2-7) | 0.0139 |  | 
CC(=O)NCCCC[C@@H]1NC(=O)[C@H](Cc2c[nH]c3c(C)cccc23)NC(=O)[C@@H](CC(=O)O)NC(=O)[C@H](CC(N)=O)NC(=O)[C@@H](NC(C)=O)C(C)(C)SSC(C)(C)[C@@H](C(=O)N[C@@H](Cc2ccc(OCCN)cc2)C(=O)N[C@@H](Cc2ccc3ccccc3c2)C(=O)N[C@@](C)(CCCCN)C(=O)N[C@@H](CCCCNC(C)=O)C(=O)N[C@@H](CC(N)=O)C(=O)N[C@H](CC(C)C)C(N)=O)NC1=O [Compound 74, Ac-[Pen]-N-[(D)Asp]-[W(7-Me)]-[Lys(Ac)]-[Pen]-Phe[4-(2-aminoethoxy)]-[2-Nal]-[a-MeLys]-[Lys(Ac)]-N-[(D)Leu]-NH2] (Ac-[Pen]N[dD][Trp(7-Me)]K(Ac)[Pen][AEF][2Nal][αMeK]K(Ac)N[dL]-NH2; disulfide 1-6) | 0.0731 |  | 
